For test [1], the system named is human IgE (cat allergic patient plasma). The experiment in a line: Direct binding ELISA of human IgE to coated antigen. The following applies: for specific IgE binding: direct binding ELISA or similar protocol. Here is the method: The basic format of these ELISA assays was a direct binding assay wherein the antigen was coated onto the wells of a 96 well microtitre dish and then antibodies in solution are added and assayed for the binding capacity. The protocol for these assays was as follows:
The peptides were conjugated to HSA (human serum albumin) by two different methods based on their chemical structure. […] Both conjugates were filter purified and dialyzed against PBS. In the ELISA assay, the unbound coating antigens were removed and the wells were blocked with 0.5% gelatin in PBS, 200 μl/well for 2 hours at room temperature. The antibody solution was a pool of plasma samples from 20 patients that were skin test positive for commercial cat extract which was serially diluted with PBS-Tween 20 (PBS with 0.05% nonionic detergent Tween-Sigma, St. Louis Mo.) and 100 μl/well was added and incubated overnight at 4° C. (plasma dilutions are tested in duplicate). […] The second antibody (biotinylated goat anti-Human IgE, 1:1000 Kirkegaard & Perry Laboratories Inc. Gaithersburg, Md.), was added at 100 μl/well for one hour at room temperature. This solution was removed and streptavidin-HRPO, 1:1000, (Southern Biotechnology Associates, Inc., Birmingham, Ala.) was then added at 100 μl/well for one hour at room temperature (all wells were washed three times with PBS-Tween between each incubation step). TMB Membrane Peroxidase Substrate system (Kirkegaard & Perry Laboratories) was freshly mixed, and added at 100 μl/well. The color was allowed to develop for 2-5 minutes. The reaction was stopped by the addition of […] of 1 M phosphoric acid. Plates are read on a Microplate EL 310 Autoreader (Biotek Instruments, Winooski, Vt.) with a 450 nm filter. The absorbance levels of duplicate wells were averaged.
(In general: ELISA stands for enzyme-linked immunosorbent assay.)

Test [2] relates to T cells from cat-allergic patients. The experiment in a line: Secondary proliferation assay of T cells primed with TRFP, peptide YXZ or peptide YZX. Format: cell-based, human. In outline: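 2×10^4 resting T cells cultured 3 days at 37° C. with 2×10^4 irradiated autologous EBV-transformed B cells as APCs and varying antigen concentrations, then pulsed 16 h with tritiated thymidine. Stimulation index = maximum antigen CPM / medium control CPM; index of 2.5 taken as positive.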

The test system of a further test is basophils. The test is described as follows: Histamine release from basophils in heparinized whole blood of cat allergic patients. It counts as cell-based, human. The following applies: eight cat allergic patients. Here is the method:
The histamine release assay used for these studies is based on the detection of an acylated derivative of histamine using a specific monoclonal antibody (Morel, A. M. and Delaage, M. A.; 1988, J. Allergy Clin. Immunol. 82:646-654.) This assay was performed as two separate protocols: 1) the release of histamine from basophils present in heparinized whole blood in the presence of different concentrations of antigens and 2) the actual assaying of histamine present in the supernates of the release reactions following cell removal by centrifugation. The reagents for this histamine radioimmunoassay are supplied commercially as a kit by Amac Inc. (Westbrook, Me.).
Whole blood was drawn from cat allergic patients using heparinized syringes or vacutainers. […] The buffer control consisted of whole blood with just buffer and no added antigen. The release reactions were then carried out at 37° C. for 30 minutes. After this incubation the tubes were centrifuged at 1500 RPM for 3 minutes and the supernates were carefully removed. It was important to spin gently so that there would be no cell lysis giving misleading results. […]
For the RIA analysis, a 50 μl aliquot of the release supernatant was diluted 1:4 with Histamine release buffer (supplied with the kit from Amac Inc.) Then 100 μl of each diluted supernatant was added to the tubes containing the acylation reagent (a lyophilized powder). […] Then they were counted on a gamma counter (Cobra 5005, Beckman Inc.) for two minutes/tube.
Following the quantitation of ^125I label/tube the standard curve is generated from the histamine standard counts and plotted on semi-log paper. Because this is a competition assay, with labelled ^125I tracer competing with the standards or unknowns for cell supernatants, the lower the recorded counts the greater the amount of cold acylated histamine in the binding assay. The data points were then generated by reading off the values on the plotted standard curve of counts versus histamine concentration (in nM).

The mark [3] stands for this setting: patient 386, T cells primed with YZX.
[4] abbreviates: patient 386, T cells primed with native TRFP.
The mark [5] stands for this setting: patient 519, cells primed with peptide YXZ.
[6] abbreviates: patient 519, native TRFP-primed T cells.
The mark [7] stands for this setting: patient 522, T cells primed with YXZ.
[8] abbreviates: patient 522, T cells primed with native TRFP, SI 2.5 positive.

As to “TRFP: human T cell reactive feline protein affinity purified from house dust; two covalently linked chains”, in test [1] (ELISA, percent of cat allergic patients with positive IgE binding), the “Positive Binding” value stood at 100%. For the same substance, in test [1] (pooled plasma, first dilution 1:2 in PBS), the “absorbance reading, IgE binding” value is on record as 0.65. Further, the T cell response result was “respond at a similar level or better” in test [2] (setting [3]); “positively respond” in test [2] (setting [4]); “positive responses” in test [2] (setting [5]); “respond” in test [2] (setting [6]); “respond less well” in test [2] (setting [7]); “positively respond” in test [2] (setting [8]). The histamine release entry with basophils is “at all but the lowest concentration, gives a clear release signal”.
On to “peptide X: amino acid residues 7-30 from chain 1 of TRFP (SEQ. ID. NO: 17); Table 2 lists Fel 8-3 as 7-33 (KRDVDLFLTGTPDEYVEQVAQYKALPV)”, for which the entries for the “specific IgE binding” value in test [1] and in test [1] (listed as Fel 8-3) were “do not demonstrate any specific IgE binding” and “No direct IgE binding”, respectively. Also, the T cell response entry is reported as “respond at a similar level or better” in test [2] (setting [3]), “positively respond” in test [2] (setting [4]), “positive responses” in test [2] (setting [5]) and “respond at a similar level or better” in test [2] (setting [7]). Besides, the histamine release entry in the test with basophils is given as “no discernible histamine release”.
For “peptide Y: amino acid residues 29-55 from chain 1 of TRFP (SEQ. ID. NO: 18) (KALPVVLENARILKNCVDAKMTEEDKE)”, the results for the “specific IgE binding” value in test [1] and in test [1] (listed as Fel 30-4) were “do not demonstrate any specific IgE binding” and “No direct IgE binding”, respectively. For the same substance, the T cell response entry is “respond at a similar level or better” in test [2] (setting [3]); “positively respond” in test [2] (setting [4]); “positive responses” in test [2] (setting [5]); “respond” in test [2] (setting [6]); “respond at a similar level or better” in test [2] (setting [7]); “positively respond” in test [2] (setting [8]). In the test on basophils, the histamine release entry is given as “no discernible histamine release”.
In the case of “NARILKNCVDAKMTEEDKE [Fel 4, TRFP chain 1 amino acids 37-55]”, the results for the T cell response result in test [2] (setting [5]) and in test [2] (setting [7]) were “positive responses” and “respond at a similar level or better”, respectively.

For the origin of these results see patent publication US7482008B1, “Human T cell reactive feline protein (TRFP) isolated from house dust and uses therefor” (Merck Patent GmbH, priority 1989, dated 2009).
